Assay results reported in PubChem BioAssay (NCI).
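Step 1: Grow cells in 96-well plates. Step 2: Expose to compound for 48 hours at 5 concentrations. Step 3: Interpolate endpoints linearly; if unreached, use highest concentration. Definition used: TGI = concentration required for complete inhibition of growth.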

What was measured:
Assay in all cases: NCI tumour cell line growth inhibition, 48 h
HOP-92 NSCLC = system: HOP-92 NSCLC
DLD-1 colon = system: DLD-1 colon
UO-31 renal = system: UO-31 renal
P388 leukemia = system: P388 leukemia
P388/ADR leukemia = system: P388/ADR leukemia
IGROV1 ovarian = system: IGROV1 ovarian
HT29 colon = system: HT29 colon
SF-295 CNS = system: SF-295 CNS
MCF7 breast = system: MCF7 breast
A549 NSCLC = system: A549 NSCLC
SK-MEL-5 melanoma = system: SK-MEL-5 melanoma
RXF 393 renal = system: RXF 393 renal
LOX IMVI melanoma = system: LOX IMVI melanoma
OVCAR-4 ovarian = system: OVCAR-4 ovarian
SK-MEL-28 melanoma = system: SK-MEL-28 melanoma
SK-OV-3 ovarian = system: SK-OV-3 ovarian
HOP-18 NSCLC = system: HOP-18 NSCLC
UACC-62 melanoma = system: UACC-62 melanoma
HL-60(TB) leukemia = system: HL-60(TB) leukemia
NCI/ADR-RES ovarian = system: NCI/ADR-RES ovarian
OVCAR-5 ovarian = system: OVCAR-5 ovarian
DMS 114 small cell lung = system: DMS 114 small cell lung
A498 renal = system: A498 renal
SNB-19 CNS = system: SNB-19 CNS
SW-620 colon = system: SW-620 colon
K-562 leukemia = system: K-562 leukemia
DMS 273 small cell lung = system: DMS 273 small cell lung
MOLT-4 leukemia = system: MOLT-4 leukemia
OVCAR-3 ovarian = system: OVCAR-3 ovarian
SN12K1 renal = system: SN12K1 renal
HCT-15 colon = system: HCT-15 colon
M19-MEL melanoma = system: M19-MEL melanoma
HCT-116 colon = system: HCT-116 colon
HOP-62 NSCLC = system: HOP-62 NSCLC
SF-539 CNS = system: SF-539 CNS
U251 CNS = system: U251 CNS
SNB-75 CNS = system: SNB-75 CNS
KM12 colon = system: KM12 colon
SF-268 CNS = system: SF-268 CNS
NCI-H226 lung = system: NCI-H226 lung
OVCAR-8 ovarian = system: OVCAR-8 ovarian
SNB-78 CNS = system: SNB-78 CNS
NCI-H23 lung = system: NCI-H23 lung
NCI-H522 lung = system: NCI-H522 lung
KM20L2 colon = system: KM20L2 colon
CCRF-CEM leukemia = system: CCRF-CEM leukemia
UACC-257 melanoma = system: UACC-257 melanoma
COLO 205 colon = system: COLO 205 colon
RPMI-8226 leukemia = system: RPMI-8226 leukemia
NCI-H460 lung = system: NCI-H460 lung
EKVX NSCLC = system: EKVX NSCLC
MALME-3M melanoma = system: MALME-3M melanoma
SK-MEL-2 melanoma = system: SK-MEL-2 melanoma
XF 498 CNS = system: XF 498 CNS
SN12C renal = system: SN12C renal
CAKI-1 renal = system: CAKI-1 renal
HCC-2998 colon = system: HCC-2998 colon

CCC(C(C)N1CC(=O)NC(=O)C1)N1CC(=O)NC(=O)C1 (configuration not stated)
TGI (HOP-92 NSCLC): > 100 µM | TGI (DLD-1 colon): > 100 µM | TGI (UO-31 renal): > 100 µM | TGI (P388 leukemia): > 75.9 µM | TGI (P388/ADR leukemia): > 100 µM | TGI (IGROV1 ovarian): > 100 µM | TGI (HT29 colon): > 100 µM | TGI (SF-295 CNS): > 100 µM | TGI (MCF7 breast): > 100 µM | TGI (A549 NSCLC): > 100 µM | TGI (SK-MEL-5 melanoma): > 100 µM | TGI (RXF 393 renal): > 100 µM | TGI (LOX IMVI melanoma): > 100 µM | TGI (OVCAR-4 ovarian): > 100 µM | TGI (SK-MEL-28 melanoma): > 100 µM | TGI (SK-OV-3 ovarian): > 100 µM | TGI (HOP-18 NSCLC): > 100 µM | TGI (UACC-62 melanoma): > 100 µM | TGI (HL-60(TB) leukemia): > 100 µM | TGI (NCI/ADR-RES ovarian): > 100 µM | TGI (OVCAR-5 ovarian): > 100 µM | TGI (DMS 114 small cell lung): > 95 µM | TGI (A498 renal): > 100 µM | TGI (SNB-19 CNS): > 100 µM | TGI (SW-620 colon): > 100 µM | TGI (K-562 leukemia): > 100 µM | TGI (DMS 273 small cell lung): > 100 µM | TGI (MOLT-4 leukemia): > 100 µM | TGI (OVCAR-3 ovarian): > 100 µM | TGI (SN12K1 renal): > 100 µM | TGI (HCT-15 colon): > 100 µM | TGI (M19-MEL melanoma): > 100 µM | TGI (HCT-116 colon): > 100 µM | TGI (HOP-62 NSCLC): > 100 µM | TGI (SF-539 CNS): > 100 µM | TGI (U251 CNS): > 100 µM | TGI (SNB-75 CNS): > 100 µM | TGI (KM12 colon): > 100 µM | TGI (SF-268 CNS): > 100 µM | TGI (NCI-H226 lung): > 100 µM | TGI (OVCAR-8 ovarian): > 100 µM | TGI (SNB-78 CNS): > 100 µM | TGI (NCI-H23 lung): > 100 µM | TGI (NCI-H522 lung): > 63.5 µM | TGI (KM20L2 colon): > 100 µM | TGI (CCRF-CEM leukemia): > 100 µM | TGI (UACC-257 melanoma): > 100 µM | TGI (COLO 205 colon): > 27.9 µM | TGI (RPMI-8226 leukemia): > 100 µM | TGI (NCI-H460 lung): > 100 µM | TGI (EKVX NSCLC): > 30 µM | TGI (MALME-3M melanoma): > 100 µM | TGI (SK-MEL-2 melanoma): > 100 µM | TGI (XF 498 CNS): > 100 µM | TGI (SN12C renal): > 100 µM | TGI (CAKI-1 renal): > 100 µM | TGI (HCC-2998 colon): > 100 µM
